Source: ChEMBL document CHEMBL1144279, “Biarylcarboxybenzamide derivatives as potent vanilloid receptor (VR1) antagonistic ligands” (Bioorg Med Chem Lett, 2005)

Assays:
[1] = molecular target: T1, Transient receptor potential cation channel subfamily V member 1 (Rattus norvegicus, UniProt O35433); experiment: In vitro antagonistic activity on VR1 receptor in [Ca2+] influx assay in rat dorsal root ganglion; format: functional, tissue-based
[2] = molecular target: T1, Transient receptor potential cation channel subfamily V member 1; experiment: In vitro agonistic activity on VR1 receptor in [Ca2+] influx assay in rat dorsal root ganglion (NE: not effective at 30 uM); format: functional, tissue-based

T1 sequence (O35433 whole entry): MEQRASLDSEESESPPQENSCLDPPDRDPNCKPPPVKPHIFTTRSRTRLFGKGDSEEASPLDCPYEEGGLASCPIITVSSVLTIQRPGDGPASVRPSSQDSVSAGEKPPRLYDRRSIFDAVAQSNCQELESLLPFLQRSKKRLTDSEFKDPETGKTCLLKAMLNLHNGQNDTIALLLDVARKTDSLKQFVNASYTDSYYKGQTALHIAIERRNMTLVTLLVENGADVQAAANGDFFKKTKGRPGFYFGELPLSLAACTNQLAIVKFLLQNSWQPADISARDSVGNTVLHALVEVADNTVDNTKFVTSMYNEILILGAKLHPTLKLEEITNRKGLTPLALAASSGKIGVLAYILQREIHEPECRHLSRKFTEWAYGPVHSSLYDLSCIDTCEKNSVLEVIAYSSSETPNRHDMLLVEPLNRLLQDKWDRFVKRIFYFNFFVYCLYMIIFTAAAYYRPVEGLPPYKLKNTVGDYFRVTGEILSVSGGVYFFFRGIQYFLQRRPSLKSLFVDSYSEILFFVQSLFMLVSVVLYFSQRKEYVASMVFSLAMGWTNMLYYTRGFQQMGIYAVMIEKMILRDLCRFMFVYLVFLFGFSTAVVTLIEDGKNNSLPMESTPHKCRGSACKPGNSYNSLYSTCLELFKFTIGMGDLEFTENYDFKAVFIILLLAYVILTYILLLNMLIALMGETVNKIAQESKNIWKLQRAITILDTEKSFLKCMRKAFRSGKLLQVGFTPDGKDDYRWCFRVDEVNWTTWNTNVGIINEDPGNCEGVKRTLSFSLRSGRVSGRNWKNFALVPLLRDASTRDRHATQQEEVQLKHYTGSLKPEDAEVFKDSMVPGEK

Cc1ccc(NC(=O)c2ccc(-c3ccccn3)cc2)cc1C
IC50 [1]: 2000 nM | IC50 [2]: Not Active

CC(C)c1ccc(NC(=O)c2ccc(-c3ccccn3)cc2)cc1
IC50 [1]: 38 nM | IC50 [2]: Not Active

CC(C)(C)c1ccc(NC(=O)c2ccc(-c3ncccn3)cc2)cc1
IC50 [1]: 60 nM | IC50 [2]: Not Active

CC(C)(C)c1ccc(NC(=O)c2ccc(-c3ccccc3)cc2)cc1
IC50 [1]: 3600 nM | IC50 [2]: Not Active

O=C(Nc1ccccc1)c1ccc(-c2ccccn2)cc1
IC50 [1]: > 10000 nM | IC50 [2]: Not Active

CN(C(=O)c1ccc(-c2ccccn2)cc1)c1ccc(C(C)(C)C)cc1
IC50 [1]: > 10000 nM | IC50 [2]: Not Active

CC(C)(C)c1ccc(NC(=O)c2ccc(-c3cnccn3)cc2)cc1
IC50 [1]: 1000 nM | IC50 [2]: Not Active

CC(C)(C)c1ccc(NC(=O)c2ccc(-c3ncccc3C(F)(F)F)cc2)cc1
IC50 [1]: 140 nM | IC50 [2]: Not Active

O=C(Nc1ccc(C(F)(F)F)cc1)c1ccc(-c2ccccn2)cc1
IC50 [1]: 7900 nM | IC50 [2]: Not Active

CC(C)(C)c1ccc(NC(=O)c2ccc(-c3ccncc3)cc2)cc1
IC50 [1]: 280 nM | IC50 [2]: Not Active

CC(C)(C)c1ccc(NC(=O)c2ccc(-c3ccccn3)cc2)cc1
IC50 [1]: 31 nM | IC50 [2]: Not Active

CC(C)(C)c1ccc(NC(=O)c2ccc(-c3cccnc3)cc2)cc1
IC50 [1]: 1300 nM | IC50 [2]: Not Active

Cc1cccnc1-c1ccc(C(=O)Nc2ccc(C(C)(C)C)cc2)cc1
IC50 [1]: 31 nM | IC50 [2]: Not Active

CC(C)(C)c1ccc(NC(=O)N2CCN(c3ccccn3)CC2)cc1
IC50 [1]: 150 nM | IC50 [2]: Not Active

CC(C)(C)c1ccc(NC(=O)c2ccc(-c3cncnc3)cc2)cc1
IC50 [1]: > 10000 nM | IC50 [2]: Not Active

Cc1ccc(NC(=O)c2ccc(-c3ccccn3)cc2)cc1
IC50 [1]: 2300 nM | IC50 [2]: Not Active

CC(C)(C)c1ccc(NC(=O)c2ccc(-c3ncccc3Cl)cc2)cc1
IC50 [1]: 55 nM | IC50 [2]: Not Active

CC(C)(C)c1ccc(NC(=O)c2ccc(-c3ncccc3[N+](=O)[O-])cc2)cc1
IC50 [1]: 60 nM | IC50 [2]: Not Active
